# Results taken from paper PMC11462347 (Heliyon, 2024).
# What was measured:
# tyrosinase [1] = molecular target: T1, tyrosinase (Agaricus bisporus, UniProt C7FF04); test: biochemical
# Target sequence in this assay (C7FF04 1-392): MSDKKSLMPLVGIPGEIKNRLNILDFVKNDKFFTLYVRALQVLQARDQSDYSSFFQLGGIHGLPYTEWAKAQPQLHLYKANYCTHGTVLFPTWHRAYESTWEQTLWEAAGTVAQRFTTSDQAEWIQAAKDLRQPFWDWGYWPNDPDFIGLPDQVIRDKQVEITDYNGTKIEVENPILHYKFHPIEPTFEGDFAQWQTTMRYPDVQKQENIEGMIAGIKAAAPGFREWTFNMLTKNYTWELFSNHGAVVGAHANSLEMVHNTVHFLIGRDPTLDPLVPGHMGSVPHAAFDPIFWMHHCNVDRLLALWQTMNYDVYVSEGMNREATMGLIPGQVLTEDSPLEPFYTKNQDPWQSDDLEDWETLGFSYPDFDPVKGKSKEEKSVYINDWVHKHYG
# tyrosinase [2] = molecular target: T1, tyrosinase; test: Kinetic assay for inhibition action; assay type: biochemical; settings: for Inhibition type: Lineweaver-Burk plot
# Target sequence in this assay (C7FF04 1-392): as above
# tyrosinase [3] = molecular target: T1, tyrosinase; test: Fluorescence quenching of tyrosinase; assay type: binding; settings: for Kd: Ka; for quenching mechanism: Ksv decreasing with temperature; for ΔH / ΔS: van't Hoff equation, 298-310 K
# Target sequence in this assay (C7FF04 1-392 limits assumed): as the sequence (C7FF04 1-392) above
IC50 (tyrosinase [1]),Inhibition type (tyrosinase [2]),numbers of binding sites (n) (tyrosinase [3]),Kq (tyrosinase [3]; 298 K),Kq (tyrosinase [3]; 304 K),Kq (tyrosinase [3]; 310 K),Kd (tyrosinase [3]; T 298 K),Kd (tyrosinase [3]; T 304 K),quenching mechanism (tyrosinase [3]),KSV (tyrosinase [3]; T 298 K),n (number of binding sites) (tyrosinase [3]; T 298 K),ΔG (tyrosinase [3]; T 298 K),KSV (tyrosinase [3]; T 304 K),n (number of binding sites) (tyrosinase [3]; T 304 K),ΔG (tyrosinase [3]; T 304 K),KSV (tyrosinase [3]; T 310 K),n (number of binding sites) (tyrosinase [3]; T 310 K),ΔG (tyrosinase [3]; T 310 K),ΔH (tyrosinase [3]),ΔS (tyrosinase [3]),Compound,also measured
96.4 ± 9.9 µM,Mixed,~1,0.73 × 10^12 L mol^−1 S^−1,0.65 × 10^12 L mol^−1 S^−1,0.51 × 10^12 L mol^−1 S^−1,5.46 µM,5.18 µM,static,0.73 ± 0.01 10^4L·mol^−1,1.10,-0.707 ± 0.0024 kcal/mol,0.65 ± 0.02 10^4L·mol^−1,1.12,-0.7 ± 0.0024 kcal/mol,0.51 ± 0.01 10^4L·mol^−1,1.08,-0.693 ± 0.0048 kcal/mol,-1.07 ± 0.502 kcal/mol,−5.10 ± 1.19 J mol^−1k^−1,COc1cc(-c2oc3cc(O)cc(O)c3c(=O)c2O)ccc1O [Isorhamnetin],Inhibition type (tyrosinase [2]; listed as isorhamnetin): mixed inhibition; Kis (tyrosinase [2]; binding to enzyme-substrate complex): 0.924 ± 0.02 mg/mL; Kd (tyrosinase [3]; T 310 K): 9.8 µM
–,Competitive,~2,1.44 × 10^12 L mol^−1 S^−1,1.17 × 10^12 L mol^−1 S^−1,1.13 × 10^12 L mol^−1 S^−1,–,–,static,1.44 ± 0.21 10^4L·mol^−1,1.44,-0.923 ± 0.012 kcal/mol,1.17 ± 0.11 10^4L·mol^−1,1.46,-0.985 ± 0.0048 kcal/mol,1.13 ± 0.15 10^4L·mol^−1,1.61,-1.05 ± 0.0048 kcal/mol,2.18 ± 0.311 kcal/mol,43.56 ± 3.21 J mol^−1k^−1,O=c1c(O)c(-c2ccc(O)c(O)c2)oc2cc(O)cc(O)c12 [Quercetin],–
82.1 ± 13.7 µM,Competitive,~1,1.03 × 10^12 L mol^−1 S^−1,0.83 × 10^12 L mol^−1 S^−1,0.73 × 10^12 L mol^−1 S^−1,47.6 µM,16.9 µM,static,1.03 ± 0.04 10^4L·mol^−1,1.08,-0.717 ± 0.014 kcal/mol,0.83 ± 0.1 10^4L·mol^−1,1.22,-0.782 ± 0.0072 kcal/mol,0.73 ± 0.02 10^4L·mol^−1,1.27,-0.846 ± 0.012 kcal/mol,2.49 ± 0.263 kcal/mol,45.03 ± 7.1 J mol^−1k^−1,O=c1c(O)c(-c2ccc(O)cc2)oc2cc(O)cc(O)c12 [Kaempferol],Kd (tyrosinase [3]; T 310 K): 12.3 µM
